Laboratory results taken from the supplement of paper PMC4862054.

What follows are compounds tested on CAL-51 (assay: normalised response (% of control), CellTiter-Glo; higher = more viable cells (100 = DMSO, 0 = benzethonium chloride kill control)). Conditions: incubation time: 72 h.
Procedure, shortened: (§1)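 The table gives the normalised signal for a single concentration in each entry. Breast cancer cell lines were seeded (20 µl suspension) into 384-well plates holding compound at 5 concentrations in 10-fold steps over a compound-specific 10,000-fold range and incubated 72 h, then read for CellTox Green fluorescence (485/520 nm) and CellTiter-Glo luminescence. Normalisation on each plate used 0.1 % DMSO (100) and a positive kill control (0).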
Work on `CO[C@@H]1[C@H](N(C)C(=O)c2ccccc2)C[C@H]2O[C@]1(C)n1c3ccccc3c3c4c(c5c6ccccc6n2c5c31)C(=O)NC4` [Midostaurin] (1 nM) yielded a normalised response of 104%. `CO[C@@]12[C@H](COC(N)=O)C3=C(C(=O)C(C)=C(N)C3=O)N1C[C@@H]1N[C@@H]12` [Mitomycin C] (1 nM) showed a normalised response of 82.6%. `CCNC(=O)c1noc(-c2cc(C(C)C)c(O)cc2O)c1-c1ccc(CN2CCOCC2)cc1` [NVP-AUY922] (0.1 nM) showed a normalised response of 94.8%.

What follows are compounds tested on CAL-85-1 in the same assay as above. Conditions: incubation time: 72 h.
Procedure, shortened: as §1
For `CC(=O)[C@]1(O)Cc2c(O)c3c(c(O)c2[C@@H](O[C@H]2C[C@H](N)[C@H](O)[C@H](C)O2)C1)C(=O)c1ccccc1C3=O` [Idarubicin] (0.1 nM), the normalised response was 102%. `C/C(=C\c1csc(C)n1)[C@@H]1C[C@@H]2O[C@]2(C)CCC[C@H](C)[C@H](O)[C@@H](C)C(=O)C(C)(C)[C@@H](O)CC(=O)N1` [Ixabepilone] (0.1 nM) showed a normalised response of 97.6%. `C=CCn1c(=O)c2cnc(Nc3ccc(N4CCN(C)CC4)cc3)nc2n1-c1cccc(C(C)(C)O)n1` [MK1775] (1 nM) was tested, and the normalised response was 101%. For `CO[C@@H]1[C@H](N(C)C(=O)c2ccccc2)C[C@H]2O[C@]1(C)n1c3ccccc3c3c4c(c5c6ccccc6n2c5c31)C(=O)NC4` [Midostaurin] (1 nM), the normalised response was 104%. `CO[C@@]12[C@H](COC(N)=O)C3=C(C(=O)C(C)=C(N)C3=O)N1C[C@@H]1N[C@@H]12` [Mitomycin C] (1 nM) was tested, and the normalised response was 99.7%. With `CCNC(=O)c1noc(-c2cc(C(C)C)c(O)cc2O)c1-c1ccc(CN2CCOCC2)cc1` [NVP-AUY922] (0.1 nM) the normalised response was 107%.

What follows are compounds tested on DU-4475 in the same assay as above. Conditions: incubation time: 72 h.
Procedure, shortened: as §1
`CC(=O)[C@]1(O)Cc2c(O)c3c(c(O)c2[C@@H](O[C@H]2C[C@H](N)[C@H](O)[C@H](C)O2)C1)C(=O)c1ccccc1C3=O` [Idarubicin] (0.1 nM) gave a normalised response of 103%. `C/C(=C\c1csc(C)n1)[C@@H]1C[C@@H]2O[C@]2(C)CCC[C@H](C)[C@H](O)[C@@H](C)C(=O)C(C)(C)[C@@H](O)CC(=O)N1` [Ixabepilone] (0.1 nM) showed a normalised response of 101%. For `C=CCn1c(=O)c2cnc(Nc3ccc(N4CCN(C)CC4)cc3)nc2n1-c1cccc(C(C)(C)O)n1` [MK1775] (1 nM), the normalised response was 96.6%. In the case of `CO[C@@H]1[C@H](N(C)C(=O)c2ccccc2)C[C@H]2O[C@]1(C)n1c3ccccc3c3c4c(c5c6ccccc6n2c5c31)C(=O)NC4` [Midostaurin] (1 nM), the normalised response is reported as 94%. In the case of `CO[C@@]12[C@H](COC(N)=O)C3=C(C(=O)C(C)=C(N)C3=O)N1C[C@@H]1N[C@@H]12` [Mitomycin C] (1 nM), the normalised response is reported as 95.1%. In the case of `CCNC(=O)c1noc(-c2cc(C(C)C)c(O)cc2O)c1-c1ccc(CN2CCOCC2)cc1` [NVP-AUY922] (0.1 nM), the normalised response is reported as 102%.

These compounds were tested on HCC1143 in the same assay as above. Conditions: incubation time: 72 h.
Procedure, shortened: as §1
`CC(=O)[C@]1(O)Cc2c(O)c3c(c(O)c2[C@@H](O[C@H]2C[C@H](N)[C@H](O)[C@H](C)O2)C1)C(=O)c1ccccc1C3=O` [Idarubicin] (0.1 nM) was tested, and the normalised response was 109%. `C/C(=C\c1csc(C)n1)[C@@H]1C[C@@H]2O[C@]2(C)CCC[C@H](C)[C@H](O)[C@@H](C)C(=O)C(C)(C)[C@@H](O)CC(=O)N1` [Ixabepilone] (0.1 nM) gave a normalised response of 98.5%. Compound `C=CCn1c(=O)c2cnc(Nc3ccc(N4CCN(C)CC4)cc3)nc2n1-c1cccc(C(C)(C)O)n1` [MK1775] (1 nM) has a normalised response of 91.4%. For `CO[C@@H]1[C@H](N(C)C(=O)c2ccccc2)C[C@H]2O[C@]1(C)n1c3ccccc3c3c4c(c5c6ccccc6n2c5c31)C(=O)NC4` [Midostaurin] (1 nM), the normalised response was 101%. `CO[C@@]12[C@H](COC(N)=O)C3=C(C(=O)C(C)=C(N)C3=O)N1C[C@@H]1N[C@@H]12` [Mitomycin C] (1 nM) gave a normalised response of 96%. `CCNC(=O)c1noc(-c2cc(C(C)C)c(O)cc2O)c1-c1ccc(CN2CCOCC2)cc1` [NVP-AUY922] (0.1 nM) was tested, and the normalised response was 101%.

The compounds below were run on HCC1599 in the same assay as above. Conditions: incubation time: 72 h.
Procedure, shortened: as §1
`CC(=O)[C@]1(O)Cc2c(O)c3c(c(O)c2[C@@H](O[C@H]2C[C@H](N)[C@H](O)[C@H](C)O2)C1)C(=O)c1ccccc1C3=O` [Idarubicin] (0.1 nM) gave a normalised response of 102%. In the case of `C/C(=C\c1csc(C)n1)[C@@H]1C[C@@H]2O[C@]2(C)CCC[C@H](C)[C@H](O)[C@@H](C)C(=O)C(C)(C)[C@@H](O)CC(=O)N1` [Ixabepilone] (0.1 nM), the normalised response is reported as 115%. In the case of `C=CCn1c(=O)c2cnc(Nc3ccc(N4CCN(C)CC4)cc3)nc2n1-c1cccc(C(C)(C)O)n1` [MK1775] (1 nM), the normalised response is reported as 105%. In the case of `CO[C@@H]1[C@H](N(C)C(=O)c2ccccc2)C[C@H]2O[C@]1(C)n1c3ccccc3c3c4c(c5c6ccccc6n2c5c31)C(=O)NC4` [Midostaurin] (1 nM), the normalised response is reported as 109%. `CO[C@@]12[C@H](COC(N)=O)C3=C(C(=O)C(C)=C(N)C3=O)N1C[C@@H]1N[C@@H]12` [Mitomycin C] (1 nM) showed a normalised response of 72.6%. `CCNC(=O)c1noc(-c2cc(C(C)C)c(O)cc2O)c1-c1ccc(CN2CCOCC2)cc1` [NVP-AUY922] (0.1 nM) was tested, and the normalised response was 123%.

These compounds were tested on HCC1937 in the same assay as above. Conditions: incubation time: 72 h.
Procedure, shortened: as §1
Compound `CC(=O)[C@]1(O)Cc2c(O)c3c(c(O)c2[C@@H](O[C@H]2C[C@H](N)[C@H](O)[C@H](C)O2)C1)C(=O)c1ccccc1C3=O` [Idarubicin] (0.1 nM) has a normalised response of 100%.
